Laboratory results reported in patent US10428070B2, “Hepatitis B antiviral agents” (Enanta Pharmaceuticals, Inc., priority 2017, dated 2019).

Tests used:
[1] = system: HBV; assay: HepAD38 antiviral assay: reduction of viral product accumulation (virion DNA by qPCR, HBsAg or HBeAg by ELISA); type: cell-based, hepatitis B virus; conditions: HepAD38 cells, harvest five days after compound addition, 50% reduction of viral product accumulation relative to no drug controls
Description: Methods: HepAD38 cells are maintained as previously reported (Ladner et al, Antimicrob. Agents Chemother. 1997, […], 1715). Briefly, cells are passaged upon attaining confluency in DMEM/F12 media in the presence of 10% FBS, Penn/Strep, 250 μg/mL G418, and 1 μg/ml tetracycline. Novel compounds are screened by first washing cells three times with PBS to remove tetracycline, and plating in 96 well plates at 35,000 cells/well. Compounds dissolved in DMSO are then diluted 1:200 into wells containing cells. Five days after compound addition, material is harvested for analysis. For an extended 8 day analysis, cells are plated and treated as described above, but media and compound are refreshed on d2 and d5 post initial treatment.
On harvest day, virion DNA is obtained by lysing with Sidestep Lysis and Stabilization Buffer and then quantified via quantitative real time PCR. Commercially available ELISA kits are used to quantitate the viral proteins HBsAg (Alpco) or HbeAg (US Biological) by following the manufacturer's recommended protocol after diluting samples to match the linear range of their respective assays.

[2] = Compound toxicity, total ATP levels (ATPLite); type: cell-based; conditions: human, HepG2 cells, three days after compound addition, 50% reduction of total ATP levels (ATPLite) relative to no drug controls
Description: Compound toxicity is evaluated by seeding cells at 15,000 cells/well and treating with compound as described above.

[3] = Hepatitis B virus, HePAD38, 120 h

SMILES | EC50 [1, 3] | CC50 at 3 days [2] | EC50 [1]
COC(=O)CCN1C(=O)OC[C@@]12CC1=C(c3ccn(C(F)F)n3)[C@H](c3ccc(F)cc3Cl)N=C(c3nccs3)N1C2 [Example 21] | > 0.4 µM | – | –
C=CCN1C[C@@]2(CC3=C(c4ccn(C(F)F)n4)[C@H](c4ccc(F)cc4Cl)N=C(c4nccs4)N3C2)OC1=O [Example 43] | < 0.1 µM | > 25 µM | –
O=C(O)CCN1C(=O)OC[C@@]12CC1=C(c3ccn(C(F)F)n3)[C@H](c3ccc(F)cc3Cl)N=C(c3nccs3)N1C2 [Example 22] | – | – | > 0.4 µM
CN1C(=O)OC[C@@]12CC1=C(c3ccn(C(F)F)n3)[C@H](c3ccc(F)cc3Cl)N=C(c3nccs3)N1C2 [Example 19] | < 0.1 µM | > 25 µM | –
C/C=C/CN1C(=O)OC[C@]12CC1=C(c3ccn(C(F)F)n3)[C@H](c3ccc(F)cc3Cl)N=C(c3nccs3)N1C2 [Example 36] | > 0.4 µM | – | –
O=S1(=O)NC[C@@]2(CC3=C(c4cnn(C(F)F)c4)[C@H](c4ccc(F)cc4Cl)N=C(c4nccs4)N3C2)N1 [Example 10] | < 0.1 µM | > 25 µM | –
COC(=O)CN1C(=O)OC[C@@]12CC1=C(c3ccn(C(F)F)n3)[C@H](c3ccc(F)cc3Cl)N=C(c3nccs3)N1C2 [Example 23] | 0.1 to 0.4 µM | – | –
CCOC(=O)C1=C2C[C@]3(CNC(=O)N3)CN2C(c2nccs2)=N[C@H]1c1ccc(F)cc1Cl (relative stereo) [Example 14] | < 0.1 µM | – | –
O=C1N[C@]2(CO1)CC1=C(c3ccn(C(F)F)n3)[C@H](c3ccc(F)cc3Cl)N=C(c3nccs3)N1C2 [Example 18] | < 0.1 µM | > 25 µM | –
C=CC1OC(=O)N[C@]12CC1=C(c3ccn(C(F)F)n3)[C@H](c3ccc(F)cc3Cl)N=C(c3nccs3)N1C2 (stereo partly shown) [Example 37] | 0.1 to 0.4 µM | – | –
C=CCN1C(=O)OC[C@@]12CC1=C(c3ccn(C(F)F)n3)[C@H](c3ccc(F)cc3Cl)N=C(c3nccs3)N1C2 [Example 25] | 0.1 to 0.4 µM | – | –
O=C1N[C@@]2(CO1)CC1=C(c3ccn(C(F)F)n3)[C@H](c3ccc(F)cc3Cl)N=C(c3nccs3)N1C2 [Example 17] | < 0.1 µM | > 25 µM | –
CCOC(=O)C1=C2C[C@@]3(CNC(=O)N3)CN2C(c2nccs2)=N[C@H]1c1ccc(F)cc1Cl (relative stereo) [Example 13] | > 0.4 µM | – | –
O=C1NC[C@@]2(CC3=C(c4ccn(C(F)F)n4)[C@H](c4ccc(F)cc4Cl)N=C(c4nccs4)N3C2)O1 [Example 42] | 0.1 to 0.4 µM | – | –
O=C1OC[C@]2(CC3=C(c4ccn(C(F)F)n4)[C@H](c4ccc(F)cc4Cl)N=C(c4nccs4)N3C2)N1C[C@H](O)CO [Example 34] | > 0.4 µM | – | –
C=CCN1C(=O)OC[C@]12CC1=C(c3ccn(C(F)F)n3)[C@H](c3ccc(F)cc3Cl)N=C(c3nccs3)N1C2 [Example 31] | > 0.4 µM | – | –
O=C1N[C@]2(CO1)CC1=C(c3cnn(C(F)F)c3)[C@H](c3ccc(F)cc3Cl)N=C(c3nccs3)N1C2 [Example 4] | < 0.1 µM | – | –
CC1OC(=O)N[C@@]12CC1=C(c3ccn(C(F)F)n3)[C@H](c3ccc(F)cc3Cl)N=C(c3nccs3)N1C2 (stereo partly shown) [Example 44] | < 0.1 µM | – | –
O=C(O)CN1C(=O)OC[C@]12CC1=C(c3ccn(C(F)F)n3)[C@H](c3ccc(F)cc3Cl)N=C(c3nccs3)N1C2 [Example 28] | > 0.4 µM | – | –
CCOC(=O)C1=C2C[C@@]3(COC(=O)N3)CN2C(c2nccs2)=N[C@H]1c1ccc(F)cc1Cl (relative stereo) [Example 11] | < 0.1 µM | – | –
CCN1C(=O)OC[C@@]12CC1=C(c3ccn(C(F)F)n3)[C@H](c3ccc(F)cc3Cl)N=C(c3nccs3)N1C2 [Example 20] | 0.1 to 0.4 µM | – | –

SMILES | EC50 [1, 3] | CC50 at 3 days [2] | EC50 [1]
O=C1N[C@]2(CC3=C(c4ccn(C(F)F)n4)[C@H](c4ccc(F)cc4Cl)N=C(c4nccs4)N3C2)C(CO)O1 (stereo partly shown) [Example 40] | < 0.1 µM | – | –
COC(=O)CCCN1C(=O)OC[C@]12CC1=C(c3ccn(C(F)F)n3)[C@H](c3ccc(F)cc3Cl)N=C(c3nccs3)N1C2 [Example 32] | < 0.1 µM | – | –
O=C(O)CN1C(=O)OC[C@@]12CC1=C(c3ccn(C(F)F)n3)[C@H](c3ccc(F)cc3Cl)N=C(c3nccs3)N1C2 [Example 24] | > 0.4 µM | – | –
O=C1OC[C@]2(CC3=C(c4ccn(C(F)F)n4)[C@H](c4ccc(F)cc4Cl)N=C(c4nccs4)N3C2)N1C[C@@H](O)CO [Example 35] | 0.1 to 0.4 µM | – | –
COC(=O)CN1C(=O)OC[C@]12CC1=C(c3ccn(C(F)F)n3)[C@H](c3ccc(F)cc3Cl)N=C(c3nccs3)N1C2 [Example 27] | > 0.4 µM | – | –
CS(=O)(=O)OC1CCCC12CC1=C(c3cnn(C(F)F)c3)[C@H](c3ccc(F)cc3Cl)N=C(c3nccs3)N1C2 (stereo partly shown) [Example 6] | 0.1 to 0.4 µM | – | –
O=C1NC[C@]2(CC3=C(c4ccn(C(F)F)n4)[C@H](c4ccc(F)cc4Cl)N=C(c4nccs4)N3C2)O1 [Example 41] | 0.1 to 0.4 µM | – | –
O=C1N[C@@]2(CO1)CC1=C(c3cnn(C(F)F)c3)[C@H](c3ccc(F)cc3Cl)N=C(c3nccs3)N1C2 [Example 3] | < 0.1 µM | > 25 µM | –
CC1OC(=O)N[C@]12CC1=C(c3ccn(C(F)F)n3)[C@H](c3ccc(F)cc3Cl)N=C(c3nccs3)N1C2 (stereo partly shown) [Example 38] | < 0.1 µM | – | –
CN1C(=O)OC[C@]12CC1=C(c3ccn(C(F)F)n3)[C@H](c3ccc(F)cc3Cl)N=C(c3nccs3)N1C2 [Example 26] | < 0.1 µM | – | –
O=S1(=O)NC[C@]2(CC3=C(c4cnn(C(F)F)c4)[C@H](c4ccc(F)cc4Cl)N=C(c4nccs4)N3C2)N1 [Example 5] | < 0.1 µM | – | –
O=C(O)CCN1C(=O)OC[C@@]12CC1=C(c3ccn(C(F)F)n3)[C@H](c3ccc(F)cc3Cl)N=C(c3nccs3)N1C2 [Example 30] | – | – | < 0.1 µM
O=C1NC[C@@]2(CC3=C(c4cnn(C(F)F)c4)[C@H](c4ccc(F)cc4Cl)N=C(c4nccs4)N3C2)N1 [Example 1] | < 0.1 µM | – | –
Fc1ccc([C@@H]2N=C(c3nccs3)N3CC4(CCCCC4)CC3=C2c2cnn(C(F)F)c2)c(Cl)c1 [Example 9] | < 0.1 µM | – | –
CCOC(=O)C1=C2C[C@]3(COC(=O)N3)CN2C(c2nccs2)=N[C@H]1c1ccc(F)cc1Cl (relative stereo) [Example 12] | < 0.1 µM | – | –
O=C(O)CCCN1C(=O)OC[C@]12CC1=C(c3ccn(C(F)F)n3)[C@H](c3ccc(F)cc3Cl)N=C(c3nccs3)N1C2 [Example 33] | 0.1 to 0.4 µM | – | –
COCOCC1OC(=O)N[C@]12CC1=C(c3ccn(C(F)F)n3)[C@H](c3ccc(F)cc3Cl)N=C(c3nccs3)N1C2 (stereo partly shown) [Example 39] | 0.1 to 0.4 µM | – | –
CCOC(=O)C1=C2C[C@@]3(CNS(=O)(=O)N3)CN2C(c2nccs2)=N[C@H]1c1ccc(F)cc1Cl (relative stereo) [Example 15] | < 0.1 µM | > 25 µM | –
O=C1NC[C@]2(CC3=C(c4cnn(C(F)F)c4)[C@H](c4ccc(F)cc4Cl)N=C(c4nccs4)N3C2)N1 [Example 2] | < 0.1 µM | > 25 µM | –
CCOC(=O)C1=C2C[C@]3(CNS(=O)(=O)N3)CN2C(c2nccs2)=N[C@H]1c1ccc(F)cc1Cl (relative stereo) [Example 16] | < 0.1 µM | – | –
